Key:
Assay type in all cases: cell-based
[1] = tested on: CHO cells where the receptor was not expressed or GPCR other than GPR39 was expressed; conditions: FLIPR; control cells
rat GPR39 = conditions: FLIPR, Fluo-3AM (FIG. 9 through FIG. 13)
Procedure: (§1) Using the CHO cell line where rat GPR39 was stably expressed, the agonist activity of metal ions was detected using FLIPR in terms of the intracellular calcium-increasing reaction as an indicator. The CHO cell line used, wherein rat GPR39 was stably expressed, was cultured in HAM's αMEM (Invitrogen Corp.) containing 10% calf fetal serum (Invitrogen Corp.). On the day before the assay was conducted, the human GPR39-expressing CHO cell line was cultured in a culture flask to reach a confluent state. After washing with PBS, the cells were scraped off using trypsin and centrifuged for recovery. The cells were then suspended in medium and the suspension was adjusted to 3×10^5 cells/ml. Then, the suspension was dispensed onto a black walled 96-well plate (Costar) in 100 μl each per well, followed by incubation overnight in a CO2 incubator.
(§2) On the day when the assay was conducted, various test samples were added to the cells and the changes of intracellular calcium levels in this case were determined by FLIPR (Molecular Device). In order to determine the changes in intracellular calcium levels on FLIPR, the cells were pre-treated by the following procedures. First, for the purpose of adding a fluorescent dye Fluo-3AM (DOJIN) to the cells or washing the cells immediately before the FLIPR assay, an assay buffer was prepared. A solution was prepared by adding 20 ml of 1M HEPES (pH 7.4) (DOJIN) to 1000 ml of HBSS (Invitrogen Corp.) (hereinafter HBSS/HEPES solution), to which solution was added 10 ml of a solution mixture obtained by dissolving 710 mg of Probenecid (Sigma) in 5 ml of 1N NaOH and further adding 5 ml of HBSS/HEPES solution thereto. The resulting solution was used as the assay buffer. Next, 50 μg of Fluo-3AM was dissolved in 21 μl of DMSO (DOJIN) and an equal volume of 20% Pluronic acid (Molecular Probes) was added to and mixed with the solution. The mixture was then added to 10.6 ml of the assay buffer supplemented with 105 μl of fetal calf serum to prepare a fluorescent dye solution. The medium for the CHO cells where human GPR39 was stably expressed was removed. Immediately thereafter, the fluorescent dye solution was dispensed in 100 μl each/well and the cells were incubated in a CO2 incubator for an hour so that the fluorescent dye was taken up into the cells. The cells after the incubation was washed with the assay buffer described above and set on FLIPR. A test sample to be added to the CHO cells where rat GPR39 was stably expressed was prepared using the assay buffer and set on FLIPR at the same time. Following the pre-treatment above, the changes in intracellular calcium levels after the addition of each test sample were determined by FLIPR.

mouse GPR39 = target: T1, mouse GPR39 (Mus musculus, UniProt Q5U431, T447P); conditions: FLIPR, Fluo-3AM (FIG. 14 through FIG. 18)
T1 construct: expressed in transfected cells; host or cells: CHO cells, vector pAKKO-111H
T1 sequence (Q5U431 1-456 T447P): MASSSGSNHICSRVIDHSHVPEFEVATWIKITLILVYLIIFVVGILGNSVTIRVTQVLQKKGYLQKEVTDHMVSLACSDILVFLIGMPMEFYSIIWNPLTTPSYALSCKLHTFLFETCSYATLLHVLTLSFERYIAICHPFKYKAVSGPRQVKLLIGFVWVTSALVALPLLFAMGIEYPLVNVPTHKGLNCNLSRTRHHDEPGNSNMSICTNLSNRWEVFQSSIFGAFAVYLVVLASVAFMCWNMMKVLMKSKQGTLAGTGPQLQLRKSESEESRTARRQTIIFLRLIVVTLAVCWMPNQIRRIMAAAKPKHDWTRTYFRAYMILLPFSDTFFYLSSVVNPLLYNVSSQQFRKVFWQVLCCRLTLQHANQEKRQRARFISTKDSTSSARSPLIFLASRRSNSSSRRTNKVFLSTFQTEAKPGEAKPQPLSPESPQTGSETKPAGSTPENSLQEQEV
Procedure: as §1, §2
Using the CHO cell line where mouse GPR39 was stably expressed, the agonist activity of metal ions was detected on FLIPR in accordance with the procedures described in EXAMPLE 5, in terms of the intracellular calcium-increasing reaction as an indicator.

Structure (SMILES) | intracellular calcium response in CHO cells without the receptor or with GPCR other than GPR39 [1] | intracellular calcium levels of CHO/rGPR39 (rat GPR39) | intracellular calcium levels of CHO/mGPR39 (mouse GPR39)
[Cl][Cu][Cl] [copper chloride] | no such response was observed | dose-dependently increased | dose-dependently increased
[Cl][Ni][Cl] [nickel chloride] | no such response was observed | dose-dependently increased | dose-dependently increased
